According to patent US20250034173A1, “PYRIDO[4,3-D]PYRIMIDINE COMPOUNDS” (PFIZER INC., priority 2023, published 2025):

Assays:
[1] = molecular target: KRAS G12V (Homo sapiens (Human), UniProt P01116, G12V); test: SPR binding affinity and kinetics, GTPγS-loaded KRAS G12V; details: GTPγS loaded protein, geomean
Outline: (§1)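 Kinetic and affinity values come from fitted SPR sensorgrams, the fit accepted on c2 values and randomly distributed residues. Dissociation was followed for at least 3600 seconds without any additional regeneration.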

[2] = molecular target: NRAS Wild Type (Homo sapiens (Human), UniProt P01111); test: SPR binding affinity and kinetics, GTPγS-loaded NRAS Wild Type; details: GTPγS loaded protein, geomean
From the text: (§2) No additional regeneration was used.
(§3) Compound dissociation was monitored for at least 3600 seconds. […] No additional regeneration was used.
(§4) The adequateness of the fit was judged by c2 values and the randomness of residue distribution.

[3] = molecular target: HRAS Wild Type (Homo sapiens (Human), UniProt P01112); test: SPR binding affinity and kinetics, GTPγS-loaded HRAS Wild Type; details: GTPγS loaded protein, geomean
From the text: as §2, §3, §4

[4] = molecular target: KRAS G12D (Homo sapiens (Human), UniProt P01116, G12D); test: SPR binding affinity and kinetics, GTPγS-loaded KRAS G12D; details: GTPγS loaded protein, geomean
Outline: as §1

[5] = molecular target: KRAS G12C (Homo sapiens (Human), UniProt P01116, G12C); test: SPR binding affinity and kinetics, GTPγS-loaded KRAS G12C; details: GTPγS loaded protein, geomean
Outline: as §1

[6] = molecular target: KRAS Wild Type (Homo sapiens (Human), UniProt P01116); test: SPR binding affinity and kinetics, GTPγS-loaded KRAS Wild Type; details: GTPγS loaded protein, geomean
Outline: as §1

[7] = test system: SW620 (colorectal cancer cell line); test: KRAS Cell Titer Glo (CTG) cell proliferation assay, SW620; format: cell-based; details: SW620 cells, 7-day CTG, geomean IC50
From the text: (§5) The CellTiter-Glo® (CTG) Luminescent Cell Viability Assay is a homogeneous method of determining the number of viable cells in culture based on quantitation of the ATP present, an indicator of metabolically active cells. The CTG is designed for use with multi-well formats, making it ideal for automated high-throughput screening (HTS), cell proliferation and cytotoxicity assays. The homogeneous assay procedure involves adding the single reagent (CellTiter-Glo® Reagent) directly to cells cultured in serum-supplemented medium. Cell washing, removal of medium and multiple pipetting steps are not required. The system detects as few as 15 cells per well in a 384-well format in 10 minutes after adding reagent and mixing.
(§6) Cells are grown in humidified 5% CO2 incubator at 37° C. using the culture conditions outlined below. All cell culture media reagents were purchased from Gibco. Cell lines purchased from ATCC: H358 (non-small cell lung cancer cell line), SW620 (colorectal cancer cell line), PANC08.13 (RPM11640+10% FBS+10 units/mL Insulin, pancreatic cancer cell line). Test and control compounds are dispensed as nanoliter drops according to desired final concentrations in 0.1% DMSO using Echo Acoustic Dispenser onto 384 assay plates (Corning, Cat #3764) prior to cell seeding. Cells were seeded in 40 μL volume per well at the following cell densities (cells per well): H358 (300), SW620 (750), PANC 08.13 (600). Cells are incubated in the presence of compound for 7-days. Viability is determined on Day 7 using CellTiter-Glo® (CTG) Luminescent Cell Viability Assay (Promega). CTG is added to a […] per well and incubated at room temperature for 15 minutes before luminescence is captured using an EnVision Reader with LUM384 US protocol. Data is analyzed using Activity Base to determine compound response and will be represented either as a percent effect (PCTEFF) or percent control (PCTOCTL) as described: Zero percent effect control (ZPE) (Negative control)—100% DMSO. Hundred percent effect (HPE) (Positive control)—1 uM Trametinib (GSK1120212, MEK inhibitor) (4 nl of 10 mM and 36 nl of DMSO per well). The following equations/nomenclature are used (% Effect; PCTEFF) and (% of Control; PCTOCTL): PCTEFF: 100*(Raw_Data_Value−HPE/ZPE−HPE), PCTOCTL: 100*Raw_Data_Value/User_Defined_Array), where the User_Defined_Array is either summarized HPE or ZPE.
(§7) Cells with “nd” indicate compound not tested in that particular assay at time of writing. It is to be understood that the geomean IC50 data may change slightly over time with increasing repeat data (ie: increasing n #).

[8] = test system: PANC08.13 (pancreatic cancer cell line); test: KRAS Cell Titer Glo (CTG) cell proliferation assay, PANC08.13; format: cell-based; details: PANC08.13 cells, 7-day CTG, geomean IC50
From the text: as §5, §6, §7

[9] = test system: H358 (non-small cell lung cancer cell line); test: KRAS Cell Titer Glo (CTG) cell proliferation assay, H358; format: cell-based; details: H358 cells, 7-day CTG, geomean IC50
From the text: as §5, §6, §7

[10] = Homo sapiens, PANC-08-13, 168 h

NRAS Wild Type, sequence (P01111 2-185): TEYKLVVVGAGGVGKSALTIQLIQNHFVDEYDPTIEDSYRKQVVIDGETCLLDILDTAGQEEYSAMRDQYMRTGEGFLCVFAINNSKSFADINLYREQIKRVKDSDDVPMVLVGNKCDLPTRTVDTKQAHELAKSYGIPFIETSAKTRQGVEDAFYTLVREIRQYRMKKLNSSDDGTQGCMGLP
HRAS Wild Type, sequence (P01112 2-184): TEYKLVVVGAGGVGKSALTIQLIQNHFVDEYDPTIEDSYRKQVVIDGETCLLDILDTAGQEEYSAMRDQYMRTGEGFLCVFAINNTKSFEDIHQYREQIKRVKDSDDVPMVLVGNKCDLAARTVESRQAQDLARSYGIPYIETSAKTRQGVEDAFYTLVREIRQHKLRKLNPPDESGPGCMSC

Row | Compound | Kd [1] [nM] | Kd [2] [nM] | Kd [3] [nM] | Kd [4] [nM] | Kd [5] [nM] | Kd [6] [nM] | IC50 ([7]; Homo sapiens, SW-620, 168 h) [nM] | IC50 [8, 10] [nM] | IC50 ([9]; Homo sapiens, NCI-H358, 168 h) [nM] | IC50 [7] [nM] | IC50 [8] [nM] | IC50 [9] [nM]
1 | C=C1CN2CCC[C@@]2(COc2nc3c4c(nc(-c5c(C6CC6)c(Cl)cc6[nH]ncc56)c(F)c4n2)OC[C@@H]2COCC[C@H](C)N32)C1 [Example 38, (8aS,13S)-5-(6-chloro-5-cyclopropyl-1H-indazol-4-yl)-4-fluoro-13-methyl-2-{[(7aS)-2-methylidenetetrahydro-1H-pyrrolizin-7a(5H)-yl]methoxy}-8a,9,12,13-tetrahydro-8H,11H-7,10-dioxa-1,3,6,13a-tetraazanaphtho[1,8-ab]heptalene] | 4 |  |  | 2 | 3 | 4 | 18 | 2 | 8 |  |  | 
2 | Fc1c(-c2c(C3CC3)c(Cl)cc3[nH]ncc23)nc2c3c(nc(OC[C@@]45CCCN4CC(=C4CC4)C5)nc13)N1CCCOC[C@H]1CO2 [Example 40, (8aS)-5-(6-chloro-5-cyclopropyl-1H-indazol-4-yl)-2-{[(7aS)-2-cyclopropylidenetetrahydro-1H-pyrrolizin-7a(5H)-yl]methoxy}-4-fluoro-8a,9,12,13-tetrahydro-8H,11H-7,10-dioxa-1,3,6,13a-tetraazanaphtho[1,8-ab]heptalene] | 6 |  |  | 4 | 7 | 6 | 60 | 13 | 52 |  |  | 
3 | Fc1c(-c2c(C3CC3)c(Cl)cc3[nH]ncc23)nc2c3c(nc(OC[C@@]45CCCN4CC(=C4CCOCC4)C5)nc13)N1CCCOC[C@H]1CO2 [Example 42, (8aS)-5-(6-chloro-5-cyclopropyl-1H-indazol-4-yl)-4-fluoro-2-{[(7aS)-2-(oxan-4-ylidene)tetrahydro-1H-pyrrolizin-7a(5H)-yl]methoxy}-8a,9,12,13-tetrahydro-8H,11H-7,10-dioxa-1,3,6,13a-tetraazanaphtho[1,8-ab]heptalene] | 32 |  |  | 24 | 33 | 68 | 233 | 44 | 288 |  |  | 
4 | (8aS)-5-(5-chloro-6-fluoro-1H-indazol-4-yl)-4-fluoro-2-{[(7aS)-2-methylidenetetrahydro-1H-pyrrolizin-7a(5H)-yl]methoxy}-8a,9,12,13-tetrahydro-8H,11H-7,10-dioxa-1,3,6,13a-tetraazanaphtho[1,8-ab]heptalene [Example 9] | 303 |  |  | 270 | 430 | 389 |  |  |  | 914 | 140 | 758
5 | (8aS)-5-(6-chloro-5-cyclopropyl-1H-indazol-4-yl)-4-fluoro-2-{[(1S,7aS*)-1-methoxy-6-methylidenetetrahydro-1H-pyrrolizin-7a(5H)-yl]methoxy}-8a,9,12,13-tetrahydro-8H,11H-7,10-dioxa-1,3,6,13a-tetraazanaphtho[1,8-ab]heptalene [Example 61] | 5 |  |  | 3 | 4 | 5 |  |  |  | 38 | 11 | 21

The remaining lines, values ahead:

Row | Kd [1] [nM] | Kd [2] [nM] | Kd [3] [nM] | Kd [4] [nM] | Kd [5] [nM] | Kd [6] [nM] | IC50 ([7]; Homo sapiens, SW-620, 168 h) [nM] | IC50 [8, 10] [nM] | IC50 ([9]; Homo sapiens, NCI-H358, 168 h) [nM] | IC50 [7] [nM] | IC50 [8] [nM] | IC50 [9] [nM] | Compound
6 | 81 | > 10000 | > 10000 | 74 | 42 | 61 |  |  |  |  |  |  | COC/C=C1\CN2CCC[C@@]2(COc2nc3c4c(nc(-c5c6c(cc7[nH]ncc57)CCC[C@H]6OC)c(F)c4n2)OC[C@@H]2COCCCN32)C1 (single isomer, unassigned) [Example 58, (8aS)-4-fluoro-2-{[(2Z,7aS)-2-(2-methoxyethylidene)tetrahydro-1H-pyrrolizin-7a(5H)-yl]methoxy}-5-[(5R*)-5-methoxy-5,6,7,8-tetrahydro-1H-benzo[f]indazol-4-yl]-8a,9,12,13-tetrahydro-8H,11H-7,10-dioxa-1,3,6,13a-tetraazanaphtho[1,8-ab]heptalene]
7 | 677 |  |  | 493 | 539 | 742 | > 9990 | 5510 | > 9990 |  |  |  | CN(C)C(=O)/C=C1\CN2CCC[C@@]2(COc2nc3c4c(nc(-c5c(C6CC6)c(Cl)cc6[nH]ncc56)c(F)c4n2)OC[C@@H]2COCCCN32)C1 [Example 43, (2Z)-2-[(7aS)-7a-({[(8aS)-5-(6-chloro-5-cyclopropyl-1H-indazol-4-yl)-4-fluoro-8a,9,12,13-tetrahydro-8H,11H-7,10-dioxa-1,3,6,13a-tetraazanaphtho[1,8-ab]heptalen-2-yl]oxy}methyl)tetrahydro-1H-pyrrolizin-2(3H)-ylidene]-N,N-dimethylacetamide]
8 | 3 |  |  | 2 | 3 | 3 | 94 | 125 | 43 |  |  |  | OC/C=C1\CN2CCC[C@@]2(COc2nc3c4c(nc(-c5c(C6CC6)c(Cl)cc6[nH]ncc56)c(F)c4n2)OC[C@@H]2COCCCN32)C1 [Example 44, (2Z)-2-[(7aS)-7a-({[(8aS)-5-(6-chloro-5-cyclopropyl-1H-indazol-4-yl)-4-fluoro-8a,9,12,13-tetrahydro-8H,11H-7,10-dioxa-1,3,6,13a-tetraazanaphtho[1,8-ab]heptalen-2-yl]oxy}methyl)tetrahydro-1H-pyrrolizin-2(3H)-ylidene]ethan-1-ol]
9 | 42 |  |  | 31 | 47 | 53 | 75 | 105 | 206 |  |  |  | C=C1CN2CCC[C@@]2(COc2nc3c4c(nc(-c5c6c(cc7[nH]ncc57)CCCC6)c(F)c4n2)OC[C@@H]2COCCCN32)C1 [Example 50, (8aS)-4-fluoro-2-{[(7aS)-2-methylidenetetrahydro-1H-pyrrolizin-7a(5H)-yl]methoxy}-5-(5,6,7,8-tetrahydro-1H-benzo[f]indazol-4-yl)-8a,9,12,13-tetrahydro-8H,11H-7,10-dioxa-1,3,6,13a-tetraazanaphtho[1,8-ab]heptalene]
10 | 1 | > 10000 | > 10000 | 1 | < 1 | 1 |  |  |  |  |  |  | C[C@@H]1CCCc2cc3[nH]ncc3c(-c3nc4c5c(nc(OC[C@@]67CCCN6C/C(=C\F)C7)nc5c3F)N3CCCOC[C@H]3CO4)c21 [Example 54, (8aS)-4-fluoro-2-{[(2Z,7aS)-2-(fluoromethylidene)tetrahydro-1H-pyrrolizin-7a(5H)-yl]methoxy}-5-[(5R)-5-methyl-5,6,7,8-tetrahydro-1H-benzo[f]indazol-4-yl]-8a,9,12,13-tetrahydro-8H,11H-7,10-dioxa-1,3,6,13a-tetraazanaphtho[1,8-ab]heptalene]
11 | < 1 | > 10000 | > 10000 | < 1 | < 1 | < 1 |  |  |  |  |  |  | C=C1CN2CCC[C@@]2(COc2nc3c4c(nc(-c5c6c(cc7[nH]nc(Cl)c57)CCC[C@H]6C)c(F)c4n2)OC[C@@H]2COCCCN32)C1 [Example 62, (8aS)-5-[(5R)-3-chloro-5-methyl-5,6,7,8-tetrahydro-1H-benzo[f]indazol-4-yl]-4-fluoro-2-{[(7aS)-2-methylidenetetrahydro-1H-pyrrolizin-7a(5H)-yl]methoxy}-8a,9,12,13-tetrahydro-8H,11H-7,10-dioxa-1,3,6,13a-tetraazanaphtho[1,8-ab]heptalene]
